Where two headings read alike, the source gives them in different places.
Tests used:
NET [1] = target: T1, NET (Homo sapiens, UniProt P23975); conditions: previously reported, U.S. Publication No. 20040115703; cited from earlier work
DAT [2] = target: DAT (Homo sapiens, UniProt Q01959); conditions: previously reported, U.S. Publication No. 20040115703; cited from earlier work
SERT [3] = target: T2, SERT (Homo sapiens, UniProt P31645); conditions: cited from earlier work
Target sequence in this assay (P31645 whole entry, species assumed): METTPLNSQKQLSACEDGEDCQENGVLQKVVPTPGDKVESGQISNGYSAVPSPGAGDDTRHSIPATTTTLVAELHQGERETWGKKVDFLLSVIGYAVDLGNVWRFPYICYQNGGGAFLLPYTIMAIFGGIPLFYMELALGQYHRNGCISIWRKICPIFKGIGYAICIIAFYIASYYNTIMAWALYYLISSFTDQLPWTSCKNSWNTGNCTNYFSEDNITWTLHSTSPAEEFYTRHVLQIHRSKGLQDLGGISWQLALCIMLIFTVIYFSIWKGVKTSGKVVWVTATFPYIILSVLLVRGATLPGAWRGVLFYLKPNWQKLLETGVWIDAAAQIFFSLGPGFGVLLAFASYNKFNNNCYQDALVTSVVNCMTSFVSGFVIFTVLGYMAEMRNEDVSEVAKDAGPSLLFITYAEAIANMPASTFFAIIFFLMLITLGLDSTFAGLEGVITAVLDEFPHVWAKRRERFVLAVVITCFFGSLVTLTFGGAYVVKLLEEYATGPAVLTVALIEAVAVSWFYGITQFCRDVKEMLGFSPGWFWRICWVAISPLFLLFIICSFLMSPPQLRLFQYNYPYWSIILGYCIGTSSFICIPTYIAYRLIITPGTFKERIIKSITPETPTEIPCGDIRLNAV

DAT [4] = target: T3, DAT (Rattus norvegicus, UniProt P23977); assay: IDT307 accumulation/transport by fluorescence, DAT; assay type: cell-based
T3 construct: expressed in transfected cells; host or cells: LLC cells
Experimental: (§1) FIG. 7—Imaging IDT307 with Zeiss LSM-510 Confocal Meta Detector. LLC Cells expressing rDAT were exposed to 10 μM IDT307 for 1 hr before rinsing with KRH buffer and imaging with a Zeiss LSM-510 confocal microscope using the meta detector. Quantification of fluorescence at each wavelength for selected regions of interest was performed using ImageJ analysis software.
(§2) 4-(4-(dimethylamino)phenyl)-1-methylpyridinium iodide, referred to herein as IDT307, is a dye with optical activity that has been discussed by a number of different researchers (Bulgarevich et al., 1992; Kuo, 1978; Coe et al., 2003; Zauhar et al., 1995; Lyapustina et al., 1993). […] IDT307 fluorescent microscopy permits localization of transport activity in single cells and neuronal processes. The IDT307 fluorescent microscopy methods of the invention also permits analysis of many cells, while retaining information about single cells. The IDT307 fluorescence assays of the invention provide detailed mechanistic information about transport. For example, temporal and spatial resolution of transport, transport kinetics, affinity for substrate, turnover rates, surface expression, and binding constants may be measured. Furthermore, features such as voltage dependence of neurotransmitter accumulation can be assessed under voltage clamp using IDT307 fluorescent microscopy.

[5] = Fluorescence spectra of intracellular IDT307; assay type: physicochemical
Experimental: as §1
FIG. 8—Fluorescence Spectra of Intracellular IDT307. IDT307 maximum absorption=420 nm, maximum emission=510 nm.

SERT [6] = target: T2, SERT; assay: [3H]5-HT uptake inhibition in LLC cells stably expressing hSERT; assay type: cell-based; design: expressed in transfected cells; conditions: [3H]5-HT 30 nM, 5 min at 37° C.
Experimental: FIG. 2—[^3H]5-HT uptake inhibition by IDT307 of SERT. […] LLC cells stably expressing hSERT were incubated with [^3H]5-HT (30 nM) in the presence of increasing concentrations of IDT307 (10^−12 to 10^−3) for 5 min at 37° C. Specific uptake was defined as total uptake minus uptake in the presence of the inhibitor paroxetine 1 μM.
Target sequence in this assay (P31645 whole entry): as the sequence (P31645 whole entry, species assumed) above

SERT [7] = target: T2, SERT; assay: IDT307 accumulation/transport by fluorescence, SERT; assay type: cell-based; design: expressed in transfected cells
Experimental: FIG. 3—IDT307 accumulation using a FlexStation™ fluorimeter. IDT307 accumulation using the FlexStation fluorimeter (excitation 440 nm/emission filter 595 nm). LLC non-transfected and hSERT expressing (control) cells were cultured in separate wells of a 96-well plate until confluent. The accumulation of IDT307 (10 μM) in these wells was then monitored in the presence and absence of paroxetine (1 μM) using the FlexStation.
FIGS. 5A-C—Kinetics of IDT307 accumulation in hSERT using the FlexStation™ fluorimeter. Kinetics of IDT307 accumulation in hSERT using the FlexStation fluorimeter. hSERT expressing cells were cultured in wells of a 96-well plate until confluent. […] SERT specific accumulation for each concentration of IDT307 was then calculated from specific uptake values (total uptake—inhibitor treated uptake).
4-(4-(dimethylamino)phenyl)-1-methylpyridinium iodide, referred to herein as IDT307, is a dye with optical activity that has been discussed by a number of different researchers (Bulgarevich et al., 1992; Kuo, 1978; Coe et al., 2003; Zauhar et al., 1995; Lyapustina et al., 1993). […] The IDT307 fluorescence assays of the invention provide detailed mechanistic information about transport. For example, temporal and spatial resolution of transport, transport kinetics, affinity for substrate, turnover rates, surface expression, and binding constants may be measured. […]
Target sequence in this assay (P31645 whole entry): as the sequence (P31645 whole entry, species assumed) above

NET [8] = target: T1, NET; assay: IDT307 accumulation/transport by time-resolved fluorescence microscopy in HEK cells expressing hNET; assay type: cell-based; design: expressed in transfected cells; host or cells: HEK cells
Text: as §2
Fluorescent microscopy is used to measure transport using IDT307 which is a fluorescent substrate for several neurotransmitter transporters. Cells that either endogenously or exogenously express a […] are isolated and plated on glass bottom Petri-dishes or multi-well plates that may typically be coated with poly-L-lysine or any other cell adhesive agent. Cells are typically cultured for three or more days. […]

T1 sequence (P23975 whole entry): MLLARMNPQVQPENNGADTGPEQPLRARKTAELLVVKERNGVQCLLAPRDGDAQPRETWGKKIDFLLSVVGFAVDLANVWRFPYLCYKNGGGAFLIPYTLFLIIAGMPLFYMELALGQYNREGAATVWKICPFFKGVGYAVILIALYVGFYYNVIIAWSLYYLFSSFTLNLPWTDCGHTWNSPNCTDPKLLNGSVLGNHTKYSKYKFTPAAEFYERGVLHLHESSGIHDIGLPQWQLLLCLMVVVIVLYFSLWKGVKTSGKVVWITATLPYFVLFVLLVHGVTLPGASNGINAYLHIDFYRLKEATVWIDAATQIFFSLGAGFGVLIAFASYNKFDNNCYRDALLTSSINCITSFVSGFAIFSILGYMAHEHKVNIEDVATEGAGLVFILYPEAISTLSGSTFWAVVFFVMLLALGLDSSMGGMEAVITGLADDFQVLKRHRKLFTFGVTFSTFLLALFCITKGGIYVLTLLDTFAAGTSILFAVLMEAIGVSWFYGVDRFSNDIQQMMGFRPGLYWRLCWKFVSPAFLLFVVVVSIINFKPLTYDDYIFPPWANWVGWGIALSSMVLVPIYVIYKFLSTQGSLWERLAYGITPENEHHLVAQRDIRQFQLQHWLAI
T3 sequence (P23977 whole entry): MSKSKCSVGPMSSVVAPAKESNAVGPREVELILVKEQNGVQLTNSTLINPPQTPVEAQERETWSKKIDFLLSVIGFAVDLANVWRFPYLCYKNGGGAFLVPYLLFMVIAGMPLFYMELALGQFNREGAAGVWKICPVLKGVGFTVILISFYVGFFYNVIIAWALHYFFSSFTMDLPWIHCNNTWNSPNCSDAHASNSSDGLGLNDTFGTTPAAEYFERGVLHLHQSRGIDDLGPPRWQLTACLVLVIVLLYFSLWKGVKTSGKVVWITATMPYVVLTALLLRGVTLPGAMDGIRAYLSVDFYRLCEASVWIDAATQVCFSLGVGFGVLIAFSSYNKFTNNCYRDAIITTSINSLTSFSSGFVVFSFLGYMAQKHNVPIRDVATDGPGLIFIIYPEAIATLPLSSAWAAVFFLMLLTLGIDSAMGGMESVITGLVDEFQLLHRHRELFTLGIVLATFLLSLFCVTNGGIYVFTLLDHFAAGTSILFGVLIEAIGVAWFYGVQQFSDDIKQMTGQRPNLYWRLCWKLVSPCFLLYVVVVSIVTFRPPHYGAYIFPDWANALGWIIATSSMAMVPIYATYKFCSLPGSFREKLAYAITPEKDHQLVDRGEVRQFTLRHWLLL
Sequence of DAT (Homo sapiens, UniProt Q01959) (Q01959 whole entry, species assumed): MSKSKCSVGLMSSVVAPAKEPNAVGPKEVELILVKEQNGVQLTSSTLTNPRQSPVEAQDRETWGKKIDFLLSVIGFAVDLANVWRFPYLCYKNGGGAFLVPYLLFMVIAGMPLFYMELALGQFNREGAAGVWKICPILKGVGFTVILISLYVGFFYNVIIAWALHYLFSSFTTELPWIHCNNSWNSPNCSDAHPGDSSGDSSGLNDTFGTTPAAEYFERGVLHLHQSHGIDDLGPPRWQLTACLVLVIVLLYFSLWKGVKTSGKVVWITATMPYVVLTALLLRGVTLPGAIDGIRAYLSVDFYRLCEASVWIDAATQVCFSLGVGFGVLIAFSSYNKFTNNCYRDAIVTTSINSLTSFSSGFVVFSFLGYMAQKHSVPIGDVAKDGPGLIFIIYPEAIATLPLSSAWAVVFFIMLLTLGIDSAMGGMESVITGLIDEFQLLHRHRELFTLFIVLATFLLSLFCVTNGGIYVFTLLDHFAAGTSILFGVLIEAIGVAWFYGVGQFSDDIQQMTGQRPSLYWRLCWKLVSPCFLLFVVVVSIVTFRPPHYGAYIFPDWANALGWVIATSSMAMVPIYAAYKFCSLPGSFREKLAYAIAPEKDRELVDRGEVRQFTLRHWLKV

CN(C)c1ccc(C=Cc2cc[n+](C)cc2)cc1 [ASP^+, 4-(4-dimethylaminostyrl)-N-methylpyridinium]
transport by NET (NET [1]): transported | transport by DAT (DAT [2]): transported | effectiveness as a substrate for the serotonin transporter (SERT [3]): only minimally effective as a substrate | transport by SERT (SERT [3]; previously reported, U.S. Publication No. 20040115703): transported

CN(C)c1ccc(-c2cc[n+](C)cc2)cc1.[I-] [IDT307, 4-(4-(dimethylamino)phenyl)-1-methylpyridinium iodide]
potency of IDT307 accumulation for DAT (DAT [4]): sub-mM potency | transport by DAT (DAT [4]): transported | maximum absorption [5]: 420 nm | maximum emission [5]: 510 nm | [3H]5-HT uptake inhibition (SERT [6]): competes for [^3H]5-HT uptake | potency of IDT307 accumulation for SERT (SERT [7]): sub-mM potency | transport by SERT (SERT [7]): transported | potency of IDT307 accumulation for hNET (NET [8]): sub-mM potency | transport by NET (NET [8]): transported

— US8647827B2, “Fluorescent substrates for neurotransmitter transporters” (Vanderbilt University, priority 2006, dated 2014)
